The results in this text go back to PubChem BioAssay (NCI).

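Cultured in 96-well plates, cells were exposed to test compound for 48 hours across five concentrations. GI50 marks 50% less growth. TGI: total growth inhibition.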

Common to all, as to test: NCI anticancer screen, dose series, 48 h
Assay [1] deals with HCT-15 colon.
Assay [2] deals with LOX IMVI melanoma.
The subject of assay [3] is MALME-3M melanoma.
For assay [4], the system named is MCF7 breast.
The subject of assay [5] is NCI-H226 lung.
Assay [6] has as its system NCI-H23 lung.
The test system of assay [7] is NCI-H522 lung.
The test system of assay [8] is OVCAR-8 ovarian.
Assay [9] concerns SF-268 CNS.
For assay [10], the system named is SK-MEL-28 melanoma.

For `Brc1ccc(Nc2nc3ccccc3nc2Nc2ccc(Br)cc2)cc1`, the GI50 in [1] is 0.507 µM; in assay [2], 1.72 µM; in assay [3], 1.98 µM; in assay [4] it was 0.527 µM; in assay [5], 2.75 µM; in assay [6], 1.32 µM. Further, the GI50 in assay [7] was 0.449 µM; in [8], 0.773 µM; in assay [9], 1.69 µM; in [10], 2.18 µM. Also, the TGI came out at 3.21 µM in [1]; 3.31 µM in assay [2]; 4.95 µM in [3]; 5.41 µM in assay [4]; 10.1 µM in assay [5]; 6.52 µM in assay [6]. Also, the TGI turned out to be 3.25 µM in assay [7], 10.8 µM in assay [8], 13.3 µM in [9] and 6.87 µM in assay [10].

In the case of `COc1cc2c3c(n(CCCN4CCCNCC4)c(=O)c2cc1OC)-c1cc2c(cc1C3=O)OCO2`, the GI50 in [1] is 1.09 µM; in assay [2], 0.165 µM; in assay [3], 2.47 µM; in assay [4] it was 0.138 µM; in [5] it was 0.303 µM; in assay [6], 0.346 µM. Moreover, the GI50 in assay [7] is 1.87 µM; in assay [8], 0.466 µM; in assay [9] it was 0.758 µM; in assay [10], 2.49 µM. The TGI in assay [1] was determined as 6.74 µM; in assay [2], 0.886 µM; in assay [3] it was 11.9 µM; in assay [4], 6.29 µM; in assay [5], 3.03 µM; in assay [6], 2.57 µM. Moreover, the TGI in [7] was 24.8 µM; in assay [8], 4.22 µM; in assay [9], 11.2 µM; in assay [10] it was 14.1 µM.

With `CCN(CC)CC(O)COc1c(Br)c(Br)c(Br)c2c1OC(C)(C)C2` (stereo not given), the GI50 was 4.74 µM in assay [1]; 2.08 µM in assay [2]; 2.28 µM in assay [3]; 1.92 µM in [4]; 13.5 µM in [5]; 9.04 µM in assay [6]. For the same compound, the GI50 in [7] is 3.42 µM; in [8] it was 11.4 µM; in [9], 8.35 µM; in assay [10], 1.62 µM. Moreover, the TGI was found to be 14.7 µM in [1]; 3.67 µM in assay [2]; 5.14 µM in assay [3]; 4.06 µM in assay [4]; 40.9 µM in assay [5]; 28.9 µM in assay [6]. For the same compound, the TGI in [7] turned out to be 14.4 µM; in assay [8], 36.7 µM; in assay [9], 26.3 µM; in [10], 3.24 µM.
